Test results taken from PubChem BioAssay (NCI).
Where “and” joins values, the source holds several entries; their conditions need not be identical. Equal entries are not always repeated.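 Results reflect a 48-hour exposure of cells in 96-well plates to compound at five concentrations. GI50: concentration for 50% inhibition of growth. At the TGI there is no net growth.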

Assays:
Assay in all cases: growth of human tumour cells (NCI), 48 h
SNB-75 CNS = system: SNB-75 CNS
HT29 colon = system: HT29 colon
SF-539 CNS = system: SF-539 CNS
SN12C renal = system: SN12C renal
HCT-116 colon = system: HCT-116 colon
OVCAR-4 ovarian = system: OVCAR-4 ovarian
SNB-19 CNS = system: SNB-19 CNS
A498 renal = system: A498 renal
SK-MEL-2 melanoma = system: SK-MEL-2 melanoma
CCRF-CEM leukemia = system: CCRF-CEM leukemia
MOLT-4 leukemia = system: MOLT-4 leukemia
SK-MEL-5 melanoma = system: SK-MEL-5 melanoma
HOP-62 NSCLC = system: HOP-62 NSCLC
COLO 205 colon = system: COLO 205 colon
LOX IMVI melanoma = system: LOX IMVI melanoma
DU-145 prostate = system: DU-145 prostate
OVCAR-5 ovarian = system: OVCAR-5 ovarian
SW-620 colon = system: SW-620 colon
SK-MEL-28 melanoma = system: SK-MEL-28 melanoma
HL-60(TB) leukemia = system: HL-60(TB) leukemia
A549 NSCLC = system: A549 NSCLC
TK-10 renal = system: TK-10 renal
T-47D breast = system: T-47D breast
RPMI-8226 leukemia = system: RPMI-8226 leukemia
UACC-257 melanoma = system: UACC-257 melanoma
HCC-2998 colon = system: HCC-2998 colon
NCI/ADR-RES ovarian = system: NCI/ADR-RES ovarian
U251 CNS = system: U251 CNS
OVCAR-8 ovarian = system: OVCAR-8 ovarian
EKVX NSCLC = system: EKVX NSCLC
BT-549 breast = system: BT-549 breast
SR leukemia = system: SR leukemia
NCI-H522 lung = system: NCI-H522 lung
MDA-MB-231 breast = system: MDA-MB-231 breast
786-0 renal = system: 786-0 renal
MALME-3M melanoma = system: MALME-3M melanoma
SF-268 CNS = system: SF-268 CNS
CAKI-1 renal = system: CAKI-1 renal
UACC-62 melanoma = system: UACC-62 melanoma
SK-OV-3 ovarian = system: SK-OV-3 ovarian
IGROV1 ovarian = system: IGROV1 ovarian
HCT-15 colon = system: HCT-15 colon
PC-3 prostate = system: PC-3 prostate
UO-31 renal = system: UO-31 renal
HS 578T breast = system: HS 578T breast
MDA-MB-435 = system: MDA-MB-435
SF-295 CNS = system: SF-295 CNS
HOP-92 NSCLC = system: HOP-92 NSCLC
OVCAR-3 ovarian = system: OVCAR-3 ovarian
NCI-H23 lung = system: NCI-H23 lung
M14 melanoma = system: M14 melanoma
NCI-H460 lung = system: NCI-H460 lung
ACHN renal = system: ACHN renal
NCI-H226 lung = system: NCI-H226 lung
K-562 leukemia = system: K-562 leukemia
MCF7 breast = system: MCF7 breast
RXF 393 renal = system: RXF 393 renal
KM12 colon = system: KM12 colon
MDA-N = system: MDA-N

N#CCNC(=O)c1ccc(-c2ccnc(Nc3ccc(N4CCOCC4)cc3)n2)cc1
GI50 (SNB-75 CNS): 0.621 µM and 0.186 µM | TGI (SNB-75 CNS): 5.6 µM and 4.17 µM | GI50 (HT29 colon): 5.71 µM and 5.38 µM | TGI (HT29 colon): > 100 µM | GI50 (SF-539 CNS): 2.29 µM and 1.14 µM | TGI (SF-539 CNS): > 10 µM and 10.4 µM | GI50 (SN12C renal): 2.73 µM and 0.992 µM | TGI (SN12C renal): > 100 µM | GI50 (HCT-116 colon): 1.49 µM and 1.19 µM | TGI (HCT-116 colon): > 24.8 µM | GI50 (OVCAR-4 ovarian): 5.94 µM and 13.3 µM | TGI (OVCAR-4 ovarian): > 10 µM and 44.9 µM | GI50 (SNB-19 CNS): 7.23 µM and 10.2 µM | TGI (SNB-19 CNS): > 10 µM and 78.4 µM | GI50 (A498 renal): 2.35 µM and 1.91 µM | TGI (A498 renal): 8.73 µM and 7.66 µM | GI50 (SK-MEL-2 melanoma): 3.97 µM and 2.48 µM | TGI (SK-MEL-2 melanoma): > 10 µM and 19 µM | GI50 (CCRF-CEM leukemia): 2.5 µM and 2.51 µM | TGI (CCRF-CEM leukemia): > 30 µM | GI50 (MOLT-4 leukemia): 2.78 µM and 2.6 µM | TGI (MOLT-4 leukemia): > 100 µM | GI50 (SK-MEL-5 melanoma): 4.61 µM | TGI (SK-MEL-5 melanoma): 38.7 µM | GI50 (HOP-62 NSCLC): 1.88 µM and 2.12 µM | TGI (HOP-62 NSCLC): > 10 µM and 16.4 µM | GI50 (COLO 205 colon): 3.17 µM and 2.96 µM | TGI (COLO 205 colon): > 31.5 µM | GI50 (LOX IMVI melanoma): 1.74 µM and 1.35 µM | TGI (LOX IMVI melanoma): > 44.9 µM | GI50 (DU-145 prostate): 2.62 µM and 1.65 µM | TGI (DU-145 prostate): > 100 µM | GI50 (OVCAR-5 ovarian): 3.43 µM and 4.07 µM | TGI (OVCAR-5 ovarian): > 54.4 µM | GI50 (SW-620 colon): 3.97 µM and 3.46 µM | TGI (SW-620 colon): > 100 µM | GI50 (SK-MEL-28 melanoma): 4.49 µM and 2.56 µM | TGI (SK-MEL-28 melanoma): > 10 µM and 20.3 µM | GI50 (HL-60(TB) leukemia): 4.79 µM and 3.14 µM | TGI (HL-60(TB) leukemia): > 100 µM | GI50 (A549 NSCLC): 4.47 µM and 1.75 µM | TGI (A549 NSCLC): > 10 µM and 12.4 µM | GI50 (TK-10 renal): 0.873 µM and 0.607 µM | TGI (TK-10 renal): 8.31 µM and 4.58 µM | GI50 (T-47D breast): > 10 µM and 9.94 µM | TGI (T-47D breast): > 10 µM and 99.8 µM | GI50 (RPMI-8226 leukemia): 3.08 µM and 2.88 µM | TGI (RPMI-8226 leukemia): > 31.9 µM | GI50 (UACC-257 melanoma): > 10 µM and 4.39 µM | TGI (UACC-257 melanoma): > 100 µM | GI50 (HCC-2998 colon): > 10 µM and 3.98 µM | TGI (HCC-2998 colon): > 10 µM and 47.4 µM | GI50 (NCI/ADR-RES ovarian): > 10 µM and 12.4 µM | TGI (NCI/ADR-RES ovarian): > 100 µM | GI50 (U251 CNS): 3.46 µM and 1.79 µM | TGI (U251 CNS): > 10 µM and 34.8 µM | GI50 (OVCAR-8 ovarian): 4.26 µM and 3.16 µM | TGI (OVCAR-8 ovarian): > 73.6 µM | GI50 (EKVX NSCLC): > 10 µM | TGI (EKVX NSCLC): > 10 µM | GI50 (BT-549 breast): 2.24 µM and 1.54 µM | TGI (BT-549 breast): > 10 µM and 5.8 µM | GI50 (SR leukemia): 0.498 µM and 0.458 µM | TGI (SR leukemia): 3.88 µM and 5.47 µM | GI50 (NCI-H522 lung): 1.22 µM and 0.713 µM | TGI (NCI-H522 lung): > 10 µM and 21.5 µM | GI50 (MDA-MB-231 breast): 2.26 µM and 2.19 µM | TGI (MDA-MB-231 breast): > 100 µM | GI50 (786-0 renal): 1.56 µM and 1.26 µM | TGI (786-0 renal): > 10 µM and 13.1 µM | GI50 (MALME-3M melanoma): 6.44 µM and 1.26 µM | TGI (MALME-3M melanoma): > 10 µM and 18.1 µM | GI50 (SF-268 CNS): 1.78 µM and 1.41 µM | TGI (SF-268 CNS): > 10 µM and 17.7 µM | GI50 (CAKI-1 renal): 0.513 µM and 0.273 µM | TGI (CAKI-1 renal): 3.72 µM and 3.03 µM | GI50 (UACC-62 melanoma): 4.44 µM and 3.66 µM | TGI (UACC-62 melanoma): > 57.8 µM | GI50 (SK-OV-3 ovarian): 4.04 µM and 3.83 µM | TGI (SK-OV-3 ovarian): > 10 µM and 24.7 µM | GI50 (IGROV1 ovarian): 1.69 µM and 1.24 µM | TGI (IGROV1 ovarian): > 10 µM and 20.3 µM | GI50 (HCT-15 colon): 3.1 µM and 2.3 µM | TGI (HCT-15 colon): > 100 µM | GI50 (PC-3 prostate): 3.77 µM and 1.77 µM | TGI (PC-3 prostate): > 10 µM and 38.8 µM | GI50 (UO-31 renal): 1.1 µM and 0.36 µM | TGI (UO-31 renal): 4.19 µM and 3.4 µM | GI50 (HS 578T breast): 0.506 µM and 0.42 µM | TGI (HS 578T breast): 4.86 µM and 12.9 µM | GI50 (MDA-MB-435): 4.75 µM and 2.82 µM | TGI (MDA-MB-435): > 100 µM | GI50 (SF-295 CNS): 4.56 µM and 1.94 µM | TGI (SF-295 CNS): > 10 µM and 16.6 µM | GI50 (HOP-92 NSCLC): 0.511 µM and 0.153 µM | TGI (HOP-92 NSCLC): 9.61 µM and 10.7 µM | GI50 (OVCAR-3 ovarian): 7.77 µM and 5.78 µM | TGI (OVCAR-3 ovarian): > 10 µM and 46.6 µM | GI50 (NCI-H23 lung): 2.71 µM and 1.87 µM | TGI (NCI-H23 lung): > 10 µM and 38.4 µM | GI50 (M14 melanoma): 4.47 µM and 4.29 µM | TGI (M14 melanoma): > 100 µM | GI50 (NCI-H460 lung): 2.5 µM and 1.36 µM | TGI (NCI-H460 lung): > 10 µM and 11.3 µM | GI50 (ACHN renal): 1.35 µM and 0.531 µM | TGI (ACHN renal): > 37.1 µM | GI50 (NCI-H226 lung): 0.754 µM and 0.531 µM | TGI (NCI-H226 lung): 7.01 µM and 21.1 µM | TGI (K-562 leukemia): > 100 µM | GI50 (MCF7 breast): 1.78 µM and 1.54 µM | TGI (MCF7 breast): > 10 µM and 21.4 µM | GI50 (RXF 393 renal): 1.11 µM and 0.345 µM | TGI (RXF 393 renal): 3.09 µM and 1.7 µM | GI50 (KM12 colon): 3.23 µM and 3.85 µM | TGI (KM12 colon): > 74 µM

O=c1n(-c2ccccc2)c(=O)n2c(-c3ccccc3)c(-c3ccccc3)n12
TGI (SNB-75 CNS): > 100 µM | TGI (HT29 colon): > 100 µM | TGI (SF-539 CNS): > 100 µM | TGI (SN12C renal): > 100 µM | TGI (HCT-116 colon): > 100 µM | TGI (OVCAR-4 ovarian): > 100 µM | TGI (SNB-19 CNS): > 100 µM | TGI (A498 renal): > 100 µM | TGI (SK-MEL-2 melanoma): > 100 µM | TGI (CCRF-CEM leukemia): > 100 µM | TGI (MOLT-4 leukemia): > 100 µM | TGI (SK-MEL-5 melanoma): > 100 µM | TGI (HOP-62 NSCLC): > 100 µM | TGI (COLO 205 colon): > 100 µM | TGI (LOX IMVI melanoma): > 100 µM | TGI (OVCAR-5 ovarian): > 100 µM | TGI (SW-620 colon): > 100 µM | TGI (SK-MEL-28 melanoma): > 100 µM | TGI (HL-60(TB) leukemia): > 100 µM | TGI (A549 NSCLC): > 100 µM | TGI (TK-10 renal): > 100 µM | TGI (UACC-257 melanoma): > 100 µM | TGI (HCC-2998 colon): > 100 µM | TGI (NCI/ADR-RES ovarian): > 100 µM | TGI (U251 CNS): > 100 µM | TGI (OVCAR-8 ovarian): > 100 µM | TGI (EKVX NSCLC): > 100 µM | TGI (BT-549 breast): > 100 µM | TGI (SR leukemia): > 100 µM | TGI (MDA-MB-231 breast): > 100 µM | TGI (786-0 renal): > 100 µM | TGI (MALME-3M melanoma): > 100 µM | TGI (CAKI-1 renal): > 100 µM | TGI (UACC-62 melanoma): > 100 µM | TGI (SK-OV-3 ovarian): > 100 µM | TGI (IGROV1 ovarian): > 100 µM | TGI (HCT-15 colon): > 100 µM | TGI (PC-3 prostate): > 100 µM | TGI (UO-31 renal): > 100 µM | TGI (HS 578T breast): > 100 µM | TGI (SF-295 CNS): > 100 µM | TGI (HOP-92 NSCLC): > 100 µM | TGI (OVCAR-3 ovarian): > 100 µM | TGI (NCI-H23 lung): > 100 µM | TGI (M14 melanoma): > 100 µM | TGI (NCI-H460 lung): > 100 µM | TGI (ACHN renal): > 100 µM | TGI (MDA-N): > 100 µM | TGI (NCI-H226 lung): > 100 µM | TGI (K-562 leukemia): > 100 µM | TGI (MCF7 breast): > 100 µM | TGI (RXF 393 renal): > 100 µM | TGI (KM12 colon): > 100 µM
